{"source": "patent US10329304B2", "about": "“Compounds and methods for inhibition of hedgehog signaling and phosphodiesterase” (Vanderbilt University, priority 2014, dated 2019)", "key": {"[1]": {"test_system": "11 PDE families", "assay": "In vitro PDE activity assays across 11 PDE families", "type": "biochemical", "protocol": "In vitro PDE profiling and dose-response assays were performed by BPS Biosciences (San Diego, Calif.). Kinetic Mechanism of inhibition studies were conducted by Millipore (St. Louis, Mo.). In brief, the PDE assay measures fluorescent polarization of FAM-AMP as FAM-cAMP is converted to FAM-AMP by PDE), the binding agent.\nA series of dilutions of the test compound were prepared with 10% DMSO in assay buffer and 5 μl of the dilution was added to a 50 μl reaction so that the final concentration of DMSO is 1% in all of reactions. All of the PDE enzymatic reactions were conducted in duplicate at room temperature for 60 minutes in a 50 μl mixture containing PDE assay buffer (10 mM Tris-HCl, pH7.4, 10 mM MaCl2, 0.05% Tween 20), 100 nM FAM-cAMP, a PDE enzyme and a test compound.\nAfter the enzymatic reaction, 100 μl of a binding solution (1:100 dilution of the binding agent, which contains the nano beads that recognize FAM-AMP, with the binding agent diluent) was added to each reaction and the reaction was performed at room temperature for 60 minutes. Fluorescence intensity was measured at an excitation of 485 nm and an emission of 528 nm using a Tecan Infinite M1000 microplate reader. Assays done by Millipore were conducted similarly with changes noted below: […]"}, "[2]": {"assay": "Mouse echocardiography after IP injection", "type": "in vivo", "settings": "for Heart rate: 5 mg/kg to 20 mg/kg IP", "protocol": "As shown below (FIGS. 28 and 29), ionotropic effects are seen within 30 minutes of eggmanone administration to a mouse (20 mg/kg IP injection). […] Mechanistically compound EGM targets the hydrolase PDE4. In Human adult myocardium, PDE4 localizes strictly to the z-bands."}, "[3]": {"test_system": "ptch1 expression", "assay": "Whole mount zebrafish in situ hybridization for ptch1", "type": "in vivo", "settings": "2 μM from 4 hpf", "protocol": "In situ hybridization was performed as previously described. Zebrafish ptch1 probes were produced as previously described."}, "[4]": {"test_system": "IFT88 localization", "assay": "IFT88 immunostaining in NIH3T3 cells", "type": "cell-based", "settings": "EGM 5 μM; ciliobrevin D 100 μM", "source_text": "To investigate whether the disruption of the cilium-to-nucleus trafficking of Gli2 by eggmanone was due to a general defect in the retrograde transport within the primary cilium, we compared the effect of the cytoplasmic dynein motor inhibitor ciliobrevin D with the effect of eggmanone on the intraflagellar transport protein 88 (IFT88) trafficking^19. […] Thus, the effects of eggmanone on Gli2 trafficking is specific, rather than an indirect consequence of a global defect in ciliary transport machinery."}, "[5]": {"test_system": "Gli-Luc reporter activity", "assay": "Gli-luciferase reporter under Gli overexpression", "type": "cell-based", "protocol": "(§1) For Hh signaling assays, Shh-Light2 cells stably transfected with Gli-Luciferase reporter construct were used along with Shh-conditioned media, as previously described^7. Alternatively, 3 μM purmorphamine or 20 nM Smoothened agonist (SAG) (Santa Cruz Biotechnology, Santa Cruz, Calif.) was used to induce Hh signaling. Reporter cells were seeded in 96-well plates and incubated overnight with the various concentrations of eggmanone and Shh-conditioned media. To assess the effects of overexpression of Gli-2, PDE4D3 and DN-PDE4D3 on Hh signaling, mammalian expression vectors containing these constructs were transfected into Shh-Light2 cells in 96-well plates using Fugene6 (Roche), according to manufacturer's instructions. The transfected or Shh-stimulated cells were incubated overnight with the various concentrations of compound. The cells were then lysed, and cell extracts were subjected to Steady-Glo luciferase assay (Promega) according to manufacturer's instructions. The results were normalized to cell titer, as determined using Cell Titer-Glo luminescence assay (Promega)."}, "[6]": {"test_system": "total cellular cAMP levels", "assay": "cAMP assay (total cellular cAMP, EIA chemiluminescence)", "type": "cell-based", "protocol": "Shh-Light2 cells were seeded in a 96-well plate and incubated overnight. Varying concentrations of Rolipram or Eggmanone (0.013 uM-30 uM) or DMSO only were added to the cells in the absence of serum and incubated 30 minutes, at which time forskolin was added for a final concentration of 1 uM. After an additional 15 minutes, cells were washed with PBS and assayed for cAMP levels using EIA based chemiluminescence kit according to the manufacturer's protocol (Cell Signaling Technologies, Danvers, Mass.)."}, "[7]": {"test_system": "SmoM2-Light cells", "assay": "Cell viability of SmoM2-Light cells", "type": "cell-based", "protocol": "Cancer cell lines were seeded in 96 well tissue culture plate at a low density (10,000 cells per well) and treated with varying concentrations of Eggmanone. After 72 hr incubation, CellTiter-Blue Cell Viability Assay (Promega, Madison, Wis.) was then performed according to manufacturer's protocol. Absorbance was then measured in a Modulus Microplate reader (Promega, Madison, Wis.) at 590 nm and compared to cells treated with DMSO."}, "[8]": {"test_system": "ptch1 expression", "assay": "RT-PCR of ptch1 in NIH3T3 cells stimulated with purmorphamine", "type": "cell-based", "settings": "NIH3T3 fibroblasts", "protocol": "NIH3T3 cells were stimulated with 3 μM purmorphamine in the presence of eggmanone or DMSO for 24-hours. Cells were collected and RNA isolated with RNeasy kit (Qiagen, Valencia, Calif.). After subsequent cDNA amplification using Superscript III (Invitrogen, Carlsbad, Calif.), samples were quantified by comparing Q-PCR cycle thresholds (Ct) for gene expression normalized to GAPDH. The following TaqMan probe and primer sets (Applied Biosystems) were used: GAPDH (Mm99999915_g1), and Patch1 (Mm01306905_mi)."}, "[9]": {"test_system": "PDE4D3-induced Hh reporter activity", "assay": "Hh reporter activity in Shh-Light2 cells transfected with PDE4D3", "type": "cell-based", "settings": "5 μM", "protocol": "as §1"}, "[10]": {"assay": "Lipophilic efficiency (LipE = pEC50 − cLogP) and cLogP", "method_in_brief": "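pEC50 came from TM3-Gli-Luc Gli-responsive luciferase reporter cells stimulated with 20 nM SAG, with non-specific cytotoxicity monitored in parallel. LipE was calculated by subtracting cLogP from pEC50.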"}, "[11]": {"settings": "healthy wild type mice and mice with heart failure"}, "[12]": {"settings": "Calculated as pEC50 - cLogP, Molinspiration Cheminformatics"}}, "note": "“Also recorded” adds a separate entry of the source. Where two headings read alike, the source gives them in different places."}
{"smiles": "C=C(C)Cn1c(SCC(=O)c2cccs2)nc2sc3c(c2c1=O)CCCC3", "note": "[EGM, Eggmanone]", "values": [{"measurement": "Inhibition across PDE families", "setting": "[1]; 10 μM (10 and 50 μM)", "result": "significantly inhibited only the PDE4 class"}, {"measurement": "Heart rate", "setting": "[2]", "result": "without increasing heart rate; also recorded: does not increase the heart rate"}, {"measurement": "End-diastolic left ventricular internal dimension (LVIDd)", "setting": "[2]; [11]", "result": "decreases end-diastolic left ventricular internal dimension (LVIDd)"}, {"measurement": "Fractional shortening (FS)", "setting": "[2]; [11]", "result": "increases fractional shortening (FS)"}, {"measurement": "Side effects", "setting": "[2]; mice", "result": "no significant side effects"}, {"measurement": "Time to return to baseline heart function", "setting": "[2]; mice", "result": "≤ 24", "unit": "h"}, {"measurement": "Hh-responsive ptch1 expression in embryos", "setting": "[3]", "result": "abolished Hh-responsive ptch1 expression in adaxial cells; also recorded: abolished Hh-responsive ptc1 expression in adaxial cells; also recorded: abolished Hh-responsive ptch1 expression in somites"}, {"measurement": "IFT88 localization in the cilium", "setting": "[4]", "result": "did not affect IFT88 localization"}, {"measurement": "Gli-luciferase reporter activity under Gli2 overexpression", "setting": "[5]", "result": "had no significant effect on Gli-luciferase reporter activity under Gli2 overexpression conditions"}, {"measurement": "Total cellular cAMP levels", "setting": "[6]", "result": "without raising total cellular cAMP content"}, {"measurement": "Total cellular cAMP levels", "setting": "[6]; listed as Egm", "result": "only caused small increase at concentrations above those required to inhibit Hh signaling"}, {"measurement": "Viability of SmoM2 cells", "setting": "[7]; listed as Egm", "result": "rapid (within 24-hrs) decline in viability"}, {"measurement": "ptch1 expression in response to purmorphamine", "setting": "[8]", "result": "significantly inhibited ptch1 expression in response to purmorphamine"}, {"measurement": "Hh reporter activity induced by wild-type PDE4D3 overexpression", "setting": "[9]", "result": "abolished"}]}
{"smiles": "C=C(C)Cn1c(SCC(=O)c2ccccc2)nc2sc3c(c2c1=O)CCCC3", "note": "[Formula 9g]", "values": [{"measurement": "LipE", "setting": "[10]; [12]", "result": "−0.01"}, {"measurement": "LipE", "setting": "[10]; pEC50 - cLogP, Table 14", "result": "−0.01"}]}
{"smiles": "CCCn1c(SCC(=O)c2cccs2)nc2sc3c(c2c1=O)CCCC3", "note": "[Formula 9e]", "values": [{"measurement": "LipE", "setting": "[10]; [12]", "result": 1.06}, {"measurement": "LipE", "setting": "[10]; pEC50 - cLogP, Table 14", "result": 1.06}]}
{"smiles": "C=C(C)Cn1c(SCC(=O)c2cccs2)nc2sc3c(c2c1=O)CCCC3", "note": "[Eggmanone, 3-(2-methylallyl)-2-((2-oxo-2-(thiophen-2-yl)ethyl)thio)-5,6,7,8-tetrahydrobenzo[4,5]thieno[2,3-d]pyrimidine-4(3H)-one]", "values": [{"measurement": "Inhibition across PDE families", "setting": "[1]; 10 μM (10 and 50 μM in b110)", "result": "significantly inhibited only the PDE4 family"}, {"measurement": "Inhibition across PDE families", "setting": "[1]; 10 μM (10 and 50 μM in b110), listed as eggmanone", "result": "significantly inhibited only the cAMP specific PDE4 family"}, {"measurement": "Heart rate", "setting": "[2]", "result": "without increasing heart rate"}, {"measurement": "Time to ionotropic effects", "setting": "[2]; 20 mg/kg IP injection", "result": "≤ 30", "unit": "min"}, {"measurement": "Fractional shortening (FS)", "setting": "[2]; [11]", "result": "increases fractional shortening (FS) and ejection fraction (EF)"}, {"measurement": "Hh-responsive ptch1 expression in embryos", "setting": "[3]", "result": "abrogated the expression of the Hh target gene patched-1 (ptch1)"}, {"measurement": "IFT88 localization in the cilium", "setting": "[4]", "result": "had no effect on IFT88 localization or cilium morphology"}, {"measurement": "Gli-luciferase reporter activity under Gli2 overexpression", "setting": "[5]", "result": "did not block Gli-Luc reporter activity in cells transiently overexpressing Gli2"}, {"measurement": "Total cellular cAMP levels", "setting": "[6]", "result": "had no effect on total cellular cAMP content; also recorded: did not significantly increase total cAMP levels"}, {"measurement": "Total cellular cAMP levels", "setting": "[6]; listed as eggmanone", "result": "did not increase total cAMP levels"}, {"measurement": "Viability of SmoM2 cells", "setting": "[7]", "result": "efficiently and selectively killed SmoM2-Light cells"}, {"measurement": "ptch1 expression in response to purmorphamine", "setting": "[8]", "result": "significantly inhibited ptch1 expression in response to purmorphamine"}, {"measurement": "Hh reporter activity induced by wild-type PDE4D3 overexpression", "setting": "[9]", "result": "abrogated; also recorded: abolished"}, {"measurement": "Hh reporter activity induced by wild-type PDE4D3 overexpression", "setting": "[9]; listed as eggmanone", "result": "abrogated"}]}
